For experiment [1], the system named is BAEC cells (bovine aortic endothelial). Nature of the experiment: In vitro inhibition of CHP-induced oxidative stress (DCF fluorescence) in BAEC cells. The class given is cell-based. Conditions: 500 µM CHP, compound 4, 20, 100 and 500 µM, 30 minutes at 37 °C, range given for both cell lines together. The method, then:
(§1) The method used was essentially the one reported by Rüweler M. et al. ("Inhibition of peroxide-induced radical generation by plant polyphenols in C6 astroglioma cells" (2008) Toxicol in vitro 22, 1377-81), with a few minor modifications.
(§2) The cells were seeded in phenol-red free DMEM (Sigma Aldrich) into 96-well plates with 5% FBS and 20 mM HEPES at a density of 40,000 cells/well. After 48 hours, the medium was substituted by HBSS (Hanks' Balanced Salt Solution, Sigma) containing 10 µM of dihydro-2',7'-dichlorofluorescein diacetate (H2DCF-DA, Sigma Aldrich) and incubated in darkness for 30 minutes at 37 °C, in order to load the cells with fluorescent dye. H2DCF-DA was hydrolyzed enzymatically by the intracellular esterases to form non-fluorescent H2DCF, which was then rapidly oxidized to form 2',7'-dichlorofluorescein (DCF) being highly fluorescent in the presence of reactive species (RS). The intensity of DCF fluorescence is directly proportional to the amount of RS formed.
(§3) After carrying out two washes, the cells were exposed to 500 µM of CHP and various concentrations (4, 20, 100 and 500 µM) of the compounds of the invention for 30 minutes at 37 °C. Fluorescence was then measured, after cell washing, by a microplate reader at an excitation wavelength of 485 nm and an emission wavelength of 535 nm.
(§4) Six wells per plate per concentration of test composition (compound + CHP) and per control (HBSS without CHP) were measured and 12 wells were used as reference for CHP-induced stress. In addition, each 96-well plate contained 6 wells that received the highest concentration of the tested compounds without CHP, to investigate whether the compounds of the invention alone were able to induce cellular radical formation.
(§5) When using this assay, it should be borne in mind that DCF fluorescence is a generalized indicator of oxidative stress rather than of any particular reactive species, i.e. it is not a direct assay for H2O2 or other reactive species (Halliwell B, Whiteman M. (2004) "Measuring reactive species and oxidative damage in vivo and in cell culture: how should you do it and what do the results mean?" Br. J. Pharmacol. 142 231-255). Therefore, when an increase in DCF fluorescence induced by exposure of cells to CHP was measured, as was undertaken in these assays, it was not possible to deduce which reactive species was responsible. Inhibition of CHP-induced fluorescence was evaluated by means of different concentrations of the compounds of the invention and comparative compounds such as Trolox and edaravone.

The subject of a further experiment is C6 cells (rat glioma). The experiment can be described thus: In vitro inhibition of CHP-induced oxidative stress (DCF fluorescence) in C6 cells. The experiment is classed as cell-based. To be noted: 500 µM CHP, compound 4, 20, 100 and 500 µM, 30 minutes at 37 °C, range given for both cell lines together. As for the experimental part: as §1, §2, §3, §4, §5

A short description of experiment [2]: TEAC method (Trolox Equivalent Antioxidant Capacity Assay). Conditions: ratio of gradient to gradient of reference (trolox); 37 °C, 650 nm, pH 4.5. An excerpt: This assay is used to measure the total antioxidant activity of pure substances, biological fluids and plant compounds and is based on the reaction of antioxidants with the cation radical ABTS^˙+ (2,2'-azinobis(3-ethylbenzothiazolin-6-sulphonate)). This cation radical is metastable and has to be generated just before the experiment by reacting ABTS with hydrogen peroxide in the presence of HRP.
This radical can be reduced, with consequent loss of absorbance, by an antioxidant whose scavenging capacity can be measured spectrophotometrically at 650 nm. The test is carried out at 37 °C and the results are obtained from a comparison with Trolox (a synthetic antioxidant and hydrophilic analogue of vitamin E).
The ABTS solution S1 was prepared as follows: • 20 mg of ABTS were added to 50 mM of citric acid buffer (40 ml) at pH=4.5 and to the resulting solution there was added an aqueous solution of HRP (4.4 mg, 400 µl) and an aqueous solution of H2O2 (10 µl of a 30% solution diluted with 16.3 ml of water).
For each of the compounds (2), (6) and (7), as synthesized above, there was prepared a 600 µM solution in water, methanol or DMSO according to its solubility, as well as a Trolox solution as reference.
Each solution was diluted to produce 6 solutions each at a concentration between 25 µM and 300 µM. From each of the diluted and divided solutions, there were withdrawn 20 µl to which 200 µl of solution S1 were then added.
The decrease in absorbance of each solution thus obtained was monitored at 650 nm until a stable value was reached (about 90 minutes).
For each set of 6 solutions and for the reference trolox solution, the absorption was given in graph form as a function of the amount of compound (nmol) in the solution. The gradient of the straight line obtained by linear interpolation was determined according to the least squares method. The TEAC value of each compound of the invention is given in the table below and is expressed as the ratio between the gradient of the resulting straight line and the gradient of the reference (trolox) straight line.

Structures are written as SMILES.

Consider `CC1(C)CC(=O)C=C(NCCN2CCCCC2)C1` [(1), 5,5-dimethyl-3-(2-(piperidin-1-yl)ethylamino)cyclohex-2-enone], for which the “Inhibition of CHP-induced fluorescence” value (in experiment [1]; in the experiment with C6 cells (rat glioma)) was “effective” in each case.

In the case of `O=C1C=C(NCCN2CCCCC2)CC(c2ccccc2)C1` (centres unmarked) [(3), 5-phenyl-3-(2-(piperidin-1-yl)ethylamino)cyclohex-2-enone], the “Inhibition of CHP-induced fluorescence” value (in experiment [1]; in the experiment with C6 cells (rat glioma)) was “effective” each time.

For `CC1(C)CC(=O)C=C(NN2CCCCC2)C1` [(6), 5,5-dimethyl-3-(piperidin-1-ylamino)cyclohex-2-enone], the TEAC in experiment [2] came out at 1.2.
